Measured values published in PubChem BioAssay (NCI).
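GI50 = concentration required for 50% inhibition of growth. At the TGI there is no net growth.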

What was measured:
Experiment in all cases: inhibition of tumour cell growth, NCI panel, 384-well format
786-0 renal = test system: 786-0 renal
A498 renal = test system: A498 renal
A549 NSCLC = test system: A549 NSCLC
ACHN renal = test system: ACHN renal
BT-549 breast = test system: BT-549 breast
CAKI-1 renal = test system: CAKI-1 renal
COLO 205 colon = test system: COLO 205 colon
DU-145 prostate = test system: DU-145 prostate
EKVX NSCLC = test system: EKVX NSCLC
HCT-116 colon = test system: HCT-116 colon
HCT-15 colon = test system: HCT-15 colon
HL-60(TB) leukemia = test system: HL-60(TB) leukemia
HOP-62 NSCLC = test system: HOP-62 NSCLC
HOP-92 NSCLC = test system: HOP-92 NSCLC
HS 578T breast = test system: HS 578T breast
HT29 colon = test system: HT29 colon
IGROV1 ovarian = test system: IGROV1 ovarian
K-562 leukemia = test system: K-562 leukemia
KM12 colon = test system: KM12 colon
M14 melanoma = test system: M14 melanoma
MALME-3M melanoma = test system: MALME-3M melanoma
MCF7 breast = test system: MCF7 breast
MDA-MB-231 breast = test system: MDA-MB-231 breast
MDA-MB-435 melanoma = test system: MDA-MB-435 melanoma
MDA-MB-468 breast = test system: MDA-MB-468 breast
MOLT-4 leukemia = test system: MOLT-4 leukemia
NCI-H226 lung = test system: NCI-H226 lung
NCI-H23 lung = test system: NCI-H23 lung
NCI-H322M lung = test system: NCI-H322M lung
NCI-H460 NSCLC = test system: NCI-H460 NSCLC
NCI-H522 lung = test system: NCI-H522 lung
OVCAR-3 ovarian = test system: OVCAR-3 ovarian
OVCAR-4 ovarian = test system: OVCAR-4 ovarian
OVCAR-5 ovarian = test system: OVCAR-5 ovarian
OVCAR-8 ovarian = test system: OVCAR-8 ovarian
PC-3 prostate = test system: PC-3 prostate
RXF 393 renal = test system: RXF 393 renal
SF-268 CNS = test system: SF-268 CNS
SF-295 CNS = test system: SF-295 CNS
SF-539 CNS = test system: SF-539 CNS
SK-MEL-2 melanoma = test system: SK-MEL-2 melanoma
SK-MEL-28 melanoma = test system: SK-MEL-28 melanoma
SK-MEL-5 melanoma = test system: SK-MEL-5 melanoma
SK-OV-3 ovarian = test system: SK-OV-3 ovarian
SN12C renal = test system: SN12C renal
SNB-19 CNS = test system: SNB-19 CNS
SNB-75 CNS = test system: SNB-75 CNS
SR leukemia = test system: SR leukemia
SW-620 colon = test system: SW-620 colon
T-47D breast = test system: T-47D breast
TK-10 renal = test system: TK-10 renal
U251 glioblastoma = test system: U251 glioblastoma
UACC-257 melanoma = test system: UACC-257 melanoma
UACC-62 melanoma = test system: UACC-62 melanoma
UO-31 renal = test system: UO-31 renal

How did the GI50 ([…]-0 renal) turn out when CC(C)[C@H]1C(=O)N[C@@H](CCCN=C(N)N)C(=O)NCC(=O)N[C@@H](CC(=O)O)C(=O)N[C@H](Cc2ccccc2)C(=O)N1C was run?
The GI50 was 7.76 µM.

What about the TGI (786-0 renal) of the same compound?
Its TGI is greater than 100 µM.

What about the GI50 (A498 renal) of the same compound?
Its GI50 is 0.765 µM.

And the TGI (A498 renal)?
Its TGI is greater than 100 µM.

What about the GI50 (A549 NSCLC) of the same compound?
The GI50 was 39.3 µM.

What about the TGI (A549 NSCLC) of the same compound?
The TGI was greater than 100 µM.

What about the GI50 (ACHN renal) of the same compound?
The GI50 was 4.33 µM.

What about the TGI (ACHN renal) of the same compound?
The TGI was greater than 100 µM.

What about the GI50 (BT-549 breast) of the same compound?
The GI50 was 2.13 µM.

And the TGI (BT-549 breast)?
Its TGI is greater than 100 µM.

And the GI50 (CAKI-1 renal)?
Its GI50 is 0.72 µM.

What about the TGI (CAKI-1 renal) of the same compound?
The TGI was 14.4 µM.

What about the GI50 (COLO 205 colon) of the same compound?
The GI50 was greater than 100 µM.

What about the TGI (COLO 205 colon) of the same compound?
The TGI was greater than 100 µM.

What about the GI50 (DU-145 prostate) of the same compound?
Its GI50 is 8.01 µM.

What about the TGI (DU-145 prostate) of the same compound?
Its TGI is greater than 100 µM.

And the GI50 (EKVX NSCLC)?
Its GI50 is 2.3 µM.

And the TGI (EKVX NSCLC)?
Its TGI is 9.86 µM.

And the GI50 (HCT-116 colon)?
Its GI50 is 26.7 µM.

What about the TGI (HCT-116 colon) of the same compound?
Its TGI is greater than 100 µM.

What about the GI50 (HCT-15 colon) of the same compound?
Its GI50 is greater than 100 µM.

And the TGI (HCT-15 colon)?
The TGI was greater than 100 µM.

What about the GI50 (HL-60(TB) leukemia) of the same compound?
The GI50 was 42.7 µM.

And the TGI (HL-60(TB) leukemia)?
The TGI was greater than 100 µM.

And the GI50 (HOP-62 NSCLC)?
Its GI50 is 4.51 µM.

What about the TGI (HOP-62 NSCLC) of the same compound?
Its TGI is greater than 100 µM.

And the GI50 (HOP-92 NSCLC)?
Its GI50 is 6.51 µM.

What about the TGI (HOP-92 NSCLC) of the same compound?
Its TGI is greater than 100 µM.

What about the GI50 (HS 578T breast) of the same compound?
The GI50 was 3.76 µM.

What about the TGI (HS 578T breast) of the same compound?
The TGI was greater than 100 µM.

And the GI50 (HT29 colon)?
Its GI50 is 53.1 µM.

What about the TGI (HT29 colon) of the same compound?
Its TGI is greater than 100 µM.

And the GI50 (IGROV1 ovarian)?
Its GI50 is 2.38 µM.

And the TGI (IGROV1 ovarian)?
Its TGI is greater than 100 µM.

And the GI50 (K-562 leukemia)?
Its GI50 is 37.7 µM.

And the TGI (K-562 leukemia)?
The TGI was greater than 100 µM.

What about the GI50 (KM12 colon) of the same compound?
Its GI50 is 42.5 µM.

What about the TGI (KM12 colon) of the same compound?
The TGI was greater than 100 µM.

What about the GI50 (M14 melanoma) of the same compound?
Its GI50 is greater than 100 µM.

And the TGI (M14 melanoma)?
Its TGI is greater than 100 µM.

And the GI50 (MALME-3M melanoma)?
The GI50 was greater than 100 µM.

What about the TGI (MALME-3M melanoma) of the same compound?
Its TGI is greater than 100 µM.

And the GI50 (MCF7 breast)?
The GI50 was 13.9 µM.

What about the TGI (MCF7 breast) of the same compound?
The TGI was greater than 100 µM.

What about the GI50 (MDA-MB-231 breast) of the same compound?
Its GI50 is 35.5 µM.

And the TGI (MDA-MB-231 breast)?
Its TGI is greater than 100 µM.

And the GI50 (MDA-MB-435 melanoma)?
The GI50 was greater than 100 µM.

And the TGI (MDA-MB-435 melanoma)?
The TGI was greater than 100 µM.

What about the GI50 (MDA-MB-468 breast) of the same compound?
The GI50 was 59.8 µM.

What about the TGI (MDA-MB-468 breast) of the same compound?
The TGI was greater than 100 µM.

And the GI50 (MOLT-4 leukemia)?
The GI50 was 5.83 µM.

And the TGI (MOLT-4 leukemia)?
Its TGI is 18 µM.

And the GI50 (NCI-H226 lung)?
The GI50 was 5.9 µM.

What about the TGI (NCI-H226 lung) of the same compound?
The TGI was greater than 100 µM.

What about the GI50 (NCI-H23 lung) of the same compound?
The GI50 was greater than 100 µM.

And the TGI (NCI-H23 lung)?
The TGI was greater than 100 µM.

And the GI50 (NCI-H322M lung)?
Its GI50 is greater than 100 µM.

What about the TGI (NCI-H322M lung) of the same compound?
Its TGI is greater than 100 µM.

What about the GI50 (NCI-H460 NSCLC) of the same compound?
The GI50 was 58.3 µM.

And the TGI (NCI-H460 NSCLC)?
Its TGI is greater than 100 µM.

And the GI50 (NCI-H522 lung)?
Its GI50 is 3.98 µM.

And the TGI (NCI-H522 lung)?
The TGI was greater than 100 µM.

What about the GI50 (OVCAR-3 ovarian) of the same compound?
Its GI50 is 53.9 µM.

And the TGI (OVCAR-3 ovarian)?
Its TGI is greater than 100 µM.

What about the GI50 (OVCAR-4 ovarian) of the same compound?
The GI50 was 7.1 µM.

And the TGI (OVCAR-4 ovarian)?
The TGI was greater than 100 µM.

And the GI50 (OVCAR-5 ovarian)?
The GI50 was 74.5 µM.

And the TGI (OVCAR-5 ovarian)?
The TGI was greater than 100 µM.

What about the GI50 (OVCAR-8 ovarian) of the same compound?
The GI50 was 11 µM.

And the TGI (OVCAR-8 ovarian)?
The TGI was greater than 100 µM.

And the GI50 (PC-3 prostate)?
The GI50 was greater than 100 µM.

What about the TGI (PC-3 prostate) of the same compound?
The TGI was greater than 100 µM.

And the GI50 (RXF 393 renal)?
The GI50 was 0.194 µM.

And the TGI (RXF 393 renal)?
The TGI was 0.858 µM.

What about the GI50 (SF-268 CNS) of the same compound?
The GI50 was 3.29 µM.

And the TGI (SF-268 CNS)?
Its TGI is greater than 100 µM.

And the GI50 (SF-295 CNS)?
Its GI50 is greater than 100 µM.

And the TGI (SF-295 CNS)?
The TGI was greater than 100 µM.

What about the GI50 (SF-539 CNS) of the same compound?
The GI50 was 27.2 µM.

What about the TGI (SF-539 CNS) of the same compound?
The TGI was greater than 100 µM.

What about the GI50 (SK-MEL-2 melanoma) of the same compound?
The GI50 was greater than 100 µM.

And the TGI (SK-MEL-2 melanoma)?
Its TGI is greater than 100 µM.

What about the GI50 (SK-MEL-28 melanoma) of the same compound?
Its GI50 is greater than 100 µM.

What about the TGI (SK-MEL-28 melanoma) of the same compound?
The TGI was greater than 100 µM.

And the GI50 (SK-MEL-5 melanoma)?
The GI50 was greater than 100 µM.

And the TGI (SK-MEL-5 melanoma)?
The TGI was greater than 100 µM.

And the GI50 (SK-OV-3 ovarian)?
Its GI50 is 41.8 µM.

What about the TGI (SK-OV-3 ovarian) of the same compound?
Its TGI is greater than 100 µM.

What about the GI50 (SN12C renal) of the same compound?
The GI50 was greater than 100 µM.

What about the TGI (SN12C renal) of the same compound?
Its TGI is greater than 100 µM.

What about the GI50 (SNB-19 CNS) of the same compound?
Its GI50 is 15.7 µM.

And the TGI (SNB-19 CNS)?
The TGI was greater than 100 µM.

What about the GI50 (SNB-75 CNS) of the same compound?
Its GI50 is 0.226 µM.

And the TGI (SNB-75 CNS)?
The TGI was 0.871 µM.

What about the GI50 (SR leukemia) of the same compound?
Its GI50 is 2.59 µM.

And the TGI (SR leukemia)?
The TGI was 12.2 µM.

What about the GI50 (SW-620 colon) of the same compound?
Its GI50 is 37.8 µM.

What about the TGI (SW-620 colon) of the same compound?
Its TGI is greater than 100 µM.

What about the GI50 (T-47D breast) of the same compound?
Its GI50 is 38.3 µM.

And the TGI (T-47D breast)?
The TGI was greater than 100 µM.

And the GI50 (TK-10 renal)?
Its GI50 is 2 µM.

And the TGI (TK-10 renal)?
Its TGI is greater than 100 µM.

What about the GI50 (U251 glioblastoma) of the same compound?
The GI50 was 8.88 µM.

And the TGI (U251 glioblastoma)?
Its TGI is greater than 100 µM.

What about the GI50 (UACC-257 melanoma) of the same compound?
Its GI50 is greater than 100 µM.

And the TGI (UACC-257 melanoma)?
The TGI was greater than 100 µM.

And the GI50 (UACC-62 melanoma)?
The GI50 was 70.8 µM.

What about the TGI (UACC-62 melanoma) of the same compound?
Its TGI is greater than 100 µM.

And the GI50 (UO-31 renal)?
Its GI50 is 5.4 µM.

What about the TGI (UO-31 renal) of the same compound?
The TGI was 99.4 µM.
